Experimental data from patent US7005418B1, “Method for the therapeutic management of extrauterine proliferation of endometrial tissue, chronic pelvic pain and fallopian tube obstruction” (Zentaris GmbH, priority 1999, dated 2006).
Non-standard residues stand in square brackets, D forms with d. Residues, ends and D or L forms follow the SMILES beside them. dPhe(4-Cl) = N[C@H](Cc1ccc(Cl)cc1)C(=O)O; d2Nal = N[C@H](Cc1ccc2ccccc2c1)C(=O)O; dCit = NC(=O)NCCC[C@@H](N)C(=O)O; d3Pal = N[C@H](Cc1cccnc1)C(=O)O

Tests used:
[1] = tested on: patients with confirmed endometriosis; experiment: Weekly s.c. LHRH-antagonist treatment for 8 weeks in patients with endometriosis: clinical outcome and tolerability (2nd look laparascopy, histological biopsies); type: in vivo, human (patients); details: for hot flushes or other (estradiol) withdrawal symptoms / proliferation of the endometrium at the end of treatment (histological biopsies): patients with endometriosis, 3 mg weekly for 8 weeks
Description: (§1) The weekly administration of an adequate dose of an LHRH antagonist, e.g. 3 mg Cetrotide® s.c./ per week over a period of eight weeks leads to a controlled suppression of estrogen secretion so that serum concentrations between about 35 pg/ml and about 80 pg/ml, preferably between about 45–75 pg/ml, more preferably between about 50–75 pg/ml are obtained. […] Also the development of osteoporosis can be avoided.

estradiol secretion = experiment: Weekly s.c. LHRH-antagonist treatment for 8 weeks in patients with endometriosis: estradiol serum levels; type: in vivo, human (patients); details: weekly dose of 1 mg resp. 3 mg once per week
Description: 3 mg once per week. The estradiol serum levels are between about 35–80 pg/ml, preferably between about 45–75 pg/ml, more preferably between about 50–75 pg/ml.
as §1

[2] = nine patients with confirmed endometriosis, 3 mg s.c. weekly for 8 weeks

`CC(=O)N[C@H](Cc1ccc2ccccc2c1)C(=O)N[C@H](Cc1ccc(Cl)cc1)C(=O)N[C@H](Cc1cccnc1)C(=O)N[C@@H](CO)C(=O)N[C@@H](Cc1ccc(O)cc1)C(=O)N[C@H](CCCNC(N)=O)C(=O)N[C@@H](CC(C)C)C(=O)N[C@@H](CCCNC(=N)N)C(=O)N1CCC[C@H]1C(=O)N[C@H](C)C(N)=O` [Cetrorelix acetate] (Ac-[d2Nal][dPhe(4-Cl)][d3Pal]SY[dCit]LRP[dA]-NH2) was tested, and the ovarian cyst formation [1, 2] was “No ovarian cyst formation occurred”, the “progress of the disease, confirmed by 2nd look laparascopy” value [1, 2] was “without any progress of the disease” and the “hot flushes or other (estradiol) withdrawal symptoms” value [1] was “avoiding any hot flushes or other withdrawal symptoms”. For the same compound, the “proliferation of the endometrium at the end of treatment (histological biopsies)” value [1] was “no proliferation of the endometrium”.

In the case of `CC(=O)N[C@H](Cc1ccc2ccccc2c1)C(=O)N[C@H](Cc1ccc(Cl)cc1)C(=O)N[C@H](Cc1cccnc1)C(=O)N[C@@H](CO)C(=O)N[C@@H](Cc1ccc(O)cc1)C(=O)N[C@H](CCCNC(N)=O)C(=O)N[C@@H](CC(C)C)C(=O)N[C@@H](CCCNC(=N)N)C(=O)N1CCC[C@H]1C(=O)N[C@H](C)C(N)=O` [Cetrorelix] (Ac-[d2Nal][dPhe(4-Cl)][d3Pal]SY[dCit]LRP[dA]-NH2), the “hot flushes or other (estradiol) withdrawal symptoms” value [1] is reported as “without any signs of estradiol withdrawal symptoms”, the “proliferation of the endometrium at the end of treatment (histological biopsies)” value [1] is reported as “without proliferation of the endometrium” and the “estradiol serum levels (FIG. 2)” value (estradiol secretion) is reported as 35 to 80 pg/mL.
